# Patent publication US9290537B2, “Method for cross-linking peptides” (UNIVERSITEIT GENT, priority 2010, dated 2016)
# How the values were obtained:
# [1] = target: T1, Tyr384Phe-Tyr306Ala variant of the pyrrolysyl-tRNA synthetase of M. mazei (Methanosarcina mazei, UniProt Q8PWY1, Y306A/Y384F); assay: Incorporation of furan amino acid in Yellow Fluorescent Protein in E. coli, mutated synthetase; assay type: cell-based; settings: for incorporation in YFP by the mutated pyrrolysine tRNA-synthetase: 0, 2, 5 and 10 mM in T7 Express E. coli cultures, YFP fluorescence
# T1 construct: expressed in transfected cells
# Description: (§1) The incorporation of unnatural furan amino acids by the pyrrolysyl-tRNA synthetase and its tRNA-CUA in Yellow Fluorescent Protein (YFP) can be easily evaluated by monitoring its fluorescence with confocal microscopy. Without incorporation of the furan amino acid at the amber codon position a truncated non-fluorescent protein was obtained, therefore the obtained fluorescence intensity paralleled the incorporation efficiency. The incorporation of the furan amino acids was tested with the tRNA-CUA of Methanosarcina mazei (M. mazei) and with the wild type pyrrolysyl-tRNA synthetase of M. mazei and the Tyr384Phe-Tyr306Ala variant of the pyrrolysyl-tRNA synthetase of M. mazei (Yanagisawa et al., Chemistry & Biology, 2008, 15, 1187-1197).
# (§2) The furan amino acid of Formula (XId) or the furan amino acid of Formula (XIc) was added in a concentration of 0, 2, 5 and 10 mM to 5 ml cell cultures of T7 Express Competent E. coli (from New England BioLabs) transformed with a pET-Duet-1 plasmid (Novagen) containing the genes for the pyrrolysine tRNA-synthetase, 3 copies of the tRNA-CUA and the mutated YFP, in LB medium with the appropriate antibiotic.
# [2] = target: T2, wild type pyrrolysyl-tRNA synthetase of M. mazei (Methanosarcina mazei, UniProt Q8PWY1); assay: Incorporation of furan amino acid in Yellow Fluorescent Protein in E. coli, wild type synthetase; assay type: cell-based; settings: 0, 2, 5 and 10 mM in T7 Express E. coli cultures; YFP fluorescence
# T2 construct: expressed in transfected cells
# Description: as §1, §2
# [3] = target: T3, streptavidin (Streptomyces avidinii, UniProt P22629); assay: Cross-linking free furan-StrepTagII peptides with streptavidin (furan-oxidation, NBS, MALDI-TOF); assay type: binding; settings: for peptide cross-linking with streptavidin: ten equivalents peptide, 60 min 37° C., one equivalent NBS per peptide, 2 hours 10° C., NaCNBH3
# From the text: In order to show the cross-link between peptides, an in vitro model system based on the interaction between the StrepTagII and streptavidin was used. The first available Strep-Tag (AWRHPQFGG; SEQ ID NO: 19) able to bind streptavidin could only be attached to the C-terminus of a protein. By changing the sequence of the Strep-Tag, a StrepTagII was developed that can be both N-terminally and C-terminally modified without losing its affinity for streptavidin. Because the intermolecular interactions between the StrepTagII and streptavidin are well characterized, StrepTagII-streptavidin is an excellent model for testing cross-linking.
# The free N-terminal and C-terminal furan-StrepTagII peptides 5.2 and 5.3, obtained as described in Example 1, were used to test cross-linking with streptavidin using the furan-oxidation method.
# Ten equivalents of the furan-peptides 5.2 or 5.3 were mixed with streptavidin and incubated during 60 min at 37° C. One equivalent of NBS per equivalent of peptide was added as an activation signal and the reaction mixture was incubated during 2 hours at 10° C. with shaking. […] The cross-link between the N-terminal furan-StrepTagII peptide 5.2 and streptavidin was less explicit than the cross-link between the C-terminal furan-StrepTagII peptide 5.3 and streptavidin. This is however not unexpected since the N-terminus of the furan-StrepTagII peptide 5.2 is located outside of its binding site with streptavidin.
# [4] = target: T4, wild type pyrrolysyl-tRNA synthetase and tRNA-CUA of M. mazei (Methanosarcina mazei, UniProt Q8PWY1); assay: Incorporation of furan amino acid in thioredoxinA (TrxA), LCMS and trypsin digest; assay type: cell-based; settings: 5 mM in 1 l cell culture; trypsin digest and peptide analysis
# T4 construct: expressed in transfected cells
# Description: In addition to YFP, another protein, thioredoxinA (TrxA), was chosen for providing additional proof of incorporation of a furan amino acid in a protein, through mass characterization after purification.
# Experiments were performed similar as in Example 12 with wild type pyrrolysyl-tRNA synthetase and tRNA-CUA of M. mazei, with the mutated TrxA and with the furan amino acid of Formula (XIc) in a concentration of 5 mM in a 1 l cell culture. This yielded 170 μg of protein after purification over a Strep column. Accurate mass determination with full protein LCMS analysis (Orbitrap, Thermo Scientific) found a mass of 13039.7 Dalton (the calculated average mass of the furan-modified oxidized thioredoxinA without the starting methionine is 13039.95 Dalton), proving the incorporation of the furan amino acid in the protein and its stability.
# [5] = target: T3, streptavidin; assay: Specific inhibition of the cross-link of free furan-StrepTagII peptides with streptavidin by biotin; assay type: binding; settings: ten equivalents peptide, streptavidin and biotin, 60 min 37° C.; one equivalent NBS, 2 hours 10° C.
# Description: In order to test the specificity of the StrepTagII-streptavidin cross-link, the experiment of Example 5 was repeated in the presence of biotin. As mentioned before, biotin binds streptavidin with high affinity and on the same binding site as the StrepTagII and can therefore act as a specific inhibitor of the cross-link.
# Ten equivalents of the furan-StrepTagII peptides 5.2 or 5.3, obtained as described in Example 1, were mixed with streptavidin and biotin and incubated during 60 min at 37° C. One equivalent of NBS per equivalent of peptide was added and the reaction was performed during 2 hours at 10° C. with shaking.
# [6] = target: T3, streptavidin; settings: same binding site as the StrepTagII; cited from earlier work
# T1 sequence (Q8PWY1 whole entry Y306A/Y384F): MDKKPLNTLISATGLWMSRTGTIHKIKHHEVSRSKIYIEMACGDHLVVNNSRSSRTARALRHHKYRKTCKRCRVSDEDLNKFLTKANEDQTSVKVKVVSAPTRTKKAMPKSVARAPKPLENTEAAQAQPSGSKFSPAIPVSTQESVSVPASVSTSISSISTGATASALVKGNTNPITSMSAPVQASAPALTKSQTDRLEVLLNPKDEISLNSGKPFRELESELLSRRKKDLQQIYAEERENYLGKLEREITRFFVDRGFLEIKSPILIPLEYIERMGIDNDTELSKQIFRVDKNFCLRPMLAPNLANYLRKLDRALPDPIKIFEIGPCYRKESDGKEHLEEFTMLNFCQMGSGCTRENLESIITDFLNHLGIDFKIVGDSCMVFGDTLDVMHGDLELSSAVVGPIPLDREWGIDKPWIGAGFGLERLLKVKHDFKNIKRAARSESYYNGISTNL
# T3 sequence (P22629 25-183, species assumed): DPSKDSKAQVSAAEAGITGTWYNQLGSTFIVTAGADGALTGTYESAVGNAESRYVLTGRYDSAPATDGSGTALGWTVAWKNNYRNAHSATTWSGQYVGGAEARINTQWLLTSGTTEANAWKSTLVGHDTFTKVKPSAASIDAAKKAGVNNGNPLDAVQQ
# T2 sequence (Q8PWY1 whole entry): as the sequence (Q8PWY1 whole entry Y306A/Y384F) above, with A306Y, F384Y counted along it
# T4 sequence (Q8PWY1 whole entry): as the sequence (Q8PWY1 whole entry Y306A/Y384F) above, with A306Y, F384Y counted along it
Compound,incorporation in YFP by the mutated pyrrolysine tRNA-synthetase [1],incorporation in YFP by the wild type synthetase [2],peptide cross-linking with streptavidin [3],also measured
NC(CCCCNC(=O)NCc1ccco1)C(=O)O (centres unmarked) [furan amino acid of Formula (XId)],incorporated both,did not incorporate,,
"peptide 5.2: N-terminal furan-StrepTagII peptide with N-terminal (2-furyl)-alanine capped with 2-naphtoic acid (FIG. 8, SEQ ID NO 2) (AWSHPQFEK; N-terminal furylalanine capped with 2-naphthoic acid)",,,cross-linking was observed,cross-link with streptavidin compared with peptide 5.3 ([3]; same conditions as E1): less explicit
NC(CCCCNC(=O)c1ccco1)C(=O)O (centres unmarked) [furan amino acid of Formula (XIc)],incorporated both,incorporated in YFP by the wild type synthetase in good yield,,"incorporation in YFP by the mutated synthetase, comparison ([1]; compared with Formula (XId) and with wild type synthetase): better than the incorporation of the furan amino acid of Formula (XId), but in lower yield than with the wild type synthetase; incorporation in TrxA [4]: incorporation of the furan amino acid on the correct position of TrxA"
"peptide 5.3: C-terminal furan-StrepTagII peptide with C-terminal (2-furyl)-alanine, N-terminally capped with 2-naphtoic acid (FIG. 9, SEQ ID NO 3) (WSHPQFEKA; N-terminal 2-naphthoyl cap; C-terminal 2-furylalanine)",,,cross-linking was observed,cross-link with streptavidin in the presence of biotin [5]: no cross-link
O=C(O)CCCC[C@@H]1SC[C@@H]2NC(=O)N[C@@H]21 [biotin],,,,affinity for streptavidin relative to StrepTagII [6]: much higher affinity
